Data from PMC4284639, “The Escherichia coli effector EspJ blocks Src kinase activity via amidation and ADP ribosylation” (Nature Communications, 2014).

Target: T1, EspJ28-217 (Escherichia coli, UniProt B7ULW8)
T1 construct: gene E2348C_0723; residues 28-217, lacking N-terminal secretion signal; 15N-labelled for NMR
Test: 1H-15N HSQC NMR titration
Type: binding
Conditions: 0.25 mM 15N-labelled protein, 1 or 10 molar equivalents of NAD+; 50 mM NaPO4 pH 7.4, 200 mM NaCl, 5 mM beta-mercaptoethanol, 10% D2O, 295 K; also ADP-ribose donor with GST-Src (150 uM NAD+ and labelle)

T1 sequence (B7ULW8 entry or part of it): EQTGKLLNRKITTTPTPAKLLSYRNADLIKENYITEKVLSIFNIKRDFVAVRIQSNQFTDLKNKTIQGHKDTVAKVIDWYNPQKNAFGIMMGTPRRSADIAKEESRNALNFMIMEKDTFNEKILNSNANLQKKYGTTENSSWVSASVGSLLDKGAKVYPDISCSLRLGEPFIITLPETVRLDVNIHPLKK

NC(=O)c1ccc[n+]([C@@H]2O[C@H](COP(=O)(O)OP(=O)(O)OC[C@H]3O[C@@H](n4cnc5c(N)ncnc54)[C@H](O)[C@@H]3O)[C@@H](O)[C@H]2O)c1 [NAD^+]
chemical shift perturbation: The addition of NAD^+ caused substantial chemical shift perturbations for several resonances
